From patent US20240225970A1, “A METHOD OF REDUCING SKIN IRRITATION, COMPRISING THE APPLICATION TO THE SKIN OF AN ALPHA-BISABOLOL PREPARED BY A BIOTECHNOLOGICAL PROCESS” (Givaudan SA, priority 2020, published 2024)

System: pruritus of the scalp
Assay: Double-blind, placebo-controlled clinical evaluation of scalp itching intensity with shampoos containing 0.5% bisabolol
Assay type: in vivo, human
Conditions: for itching intensity, Mean +/− SEM: scale of 0-10, washed once a day, volunteers with pruritus of the scalp; for itching intensity, Mean +/− SEM / itching intensity, Δ % mean: shampoo with 0.5% by weight bisabolol; for itching intensity, Δ % mean: D14 versus D0 (T0)
Text: Comparison of the improvement in skin soothing effect using shampoos formulated with bio-bisabolol, chemically-produced bisabolol and plant-derived bisabolol. Samples of the bio-bisabolol prepared according to Example 1, a commercially-available synthetic bisabolol and a bisabolol derived from chamomile oil were incorporated into shampoo formulations at 0.5% by weight. An untreated sample of the shampoo was included as placebo. A double-blind, inter-individual and placebo-controlled clinical evaluation was performed on 80 volunteers (both men and women of age 18 and over). The subjects had Fitzpatrick skin types I to IV, and all suffered from pruritus of the scalp. The volunteers washed and rinsed their hair once a day and itching intensity was evaluated on days 1 and 14, using a scale of 0-10, where 0 represents no itching and 10 represents […].

Structure (SMILES)	itching intensity, Mean +/− SEM (D0)	itching intensity, Mean +/− SEM (D14)	itching intensity, Δ % mean [%]	reduction in scalp irritation in comparison with the placebo (in words) (after 14 days of application)	reduction in scalp irritation in comparison with the placebo group (after 14 days of application, p<0.1) [%]
CC(C)=CCC[C@](C)(O)[C@@H]1CC=C(C)CC1 [Synthetic bisabolol]	4.4 ± 0.5	1.3 ± 0.4	−70	did not show any significant reduction	
CC(C)=CCC[C@@](C)(O)[C@@H]1CC=C(C)CC1 [Example 1 bio-bisabolol, (−)-α-bisabolol]	4.3 ± 0.4	0.3 ± 0.2	−93		25
CC(C)=CCC[C@](C)(O)[C@@H]1CC=C(C)CC1 [Plant bisabolol]	4.8 ± 0.5	1.5 ± 0.4	−69	did not show any significant reduction	
